Measurements from patent US20220193202A1, “PARATHYROID HORMONE DERIVATIVE IN DIMERIC FORM OF PARATHYROID HORMONE FRAGMENT AND PHARMACEUTICAL COMPOSITION FOR PREVENTION OR TREATMENT OF BONE DISEASES COMPRISING SAME” (GACHON UNIVERSITY OF INDUSTRY-ACADEMIC COOPERATION …, priority 2019, published 2022).

How the values were obtained:
Type in all cases: in vivo, C57BL6 male mice
[1] = system: trabecular bones of the femurs; assay: micro-CT of femur of opposite limb (trabecular bone formation); settings: 100 μg/kg subcutaneously daily Day 1 to Day 13, Day 14, compared with control, PTH(1-34) and monomeric [Cys25]PTH(1-34) groups
Protocol: (§1) Five 10-week-old C57BL6 male mice were prepared for each group, and fracture model surgery was performed in the following manner (see FIG. 3). In particular, 9 days before (-D9) and 6 days before (-D6) prior to fracture model surgery (DO) in mice of each group, infrared fluorescent dyes (IR Dyes, Infra-Red dyes) were administered through a tail vein of the mice. Then, the mice were general anesthetized using isoflurane containing oxygen (O2) for fracture model surgery, and a left hind limb was shaved and sterilized for surgery. An incision of about 15 mm was made in the left hind limb in the longitudinal direction, and the tibia was exposed by obtuse-angled resection of the muscle. Then, transverse osteotomy was performed using disc-shaped dental steel bars at the midpoint of the tibia. After repositioning the fracture site, the entire length of a bone marrow lumen was made internally stabilized. After washing it with saline, the skin was sutured with nylon sutures. In particular, the fracture animal models prepared in Example 2 was divided into a control group, PTH(1-34), monomeric [[…]]PTH(1-34), and dimeric [[…]]PTH(1-34) administration groups (n=5 animals per group). […] In addition, the femurs of an opposite limb of the animal models were collected and analyzed by micro-CT equipment to evaluate the degree of bone formation in the trabecular bones of the femurs.

[2] = system: fracture animal model; assay: IVIS imaging of fracture site in fracture animal model; settings: 100 μg/kg subcutaneously daily Day 1 to Day 13 after fracture surgery; imaged Day 4, 7, 11, 14
Protocol: Five 10-week-old C57BL6 male mice were prepared for each group, and fracture model surgery was performed in the following manner (see FIG. 3). In particular, 9 days before (-D9) and 6 days before (-D6) prior to fracture model surgery (DO) in mice of each group, infrared fluorescent dyes (IR Dyes, Infra-Red dyes) were administered through a tail vein of the mice. Then, the mice were general anesthetized using isoflurane containing oxygen (O2) for fracture model surgery, and a left hind limb was shaved and sterilized for surgery. An incision of about 15 mm was made in the left hind limb in the longitudinal direction, and the tibia was exposed by obtuse-angled resection of the muscle. Then, transverse osteotomy was performed using disc-shaped dental steel bars at the midpoint of the tibia. After repositioning the fracture site, the entire length of a bone marrow lumen was made internally stabilized. […] On Day 4, Day 7, Day 11, and Day 14 after the surgery, fracture sites of mice per each group were photographed and analyzed using IVIS Lumina XR (Caliper Life Sciences, USA) equipment and Living Image software. The results as shown in FIG. 4 confirmed that when the dimeric [[…]]PTH(1-34) was administered, an intensity of fluorescence was increased at the site where the fracture was healing. […] Therefore, intensifying of the fluorescence means that bone formation increased.

[3] = system: fracture animal model; assay: 3D-micro CT of tibia including fracture site (callus formation); settings: 100 μg/kg subcutaneously daily Day 1 to Day 13; tibia collected Day 14
Protocol: as §1, with “The collected shin bones” for “In addition, the femurs of an opposite limb of the animal models”, “imaged” for “collected”, “using 3D-micro CT (Microfocus X-ray CT system SMX-90CT, Shimadzu, Japan) equipment.” for “by micro-CT equipment to evaluate the degree of bone formation in the trabecular bones of the femurs.”

“dimeric [Cys25]PTH(1-34): Dimeric form of parathyroid hormone fragment PTH(1-34) with Arg25 substituted by Cys (SEQ ID NO: 1), disulfide bond between cysteines” was tested, and the “bone formation in the trabecular bones of the femurs (micro-CT, FIG. 8)” value [1] was “greatest increase”, the “bone formation, average of photon flux (FIG. 5)” value [2] was “significantly increased” and the “intensity of fluorescence at the site where the fracture was healing (IVIS imaging, FIG. 4)” value [2] was “increased”. The “callus formation (3D-micro CT, FIG. 6)” value [3] was “promoted” and the “callus volume (FIG. 7)” value [3] was “notably increased”.
